Read-outs that look alike come from different tables or passages of the source.

In one assay the target is BuChE (Homo sapiens, UniProt P06276). The assay can be described thus: biochemical. The procedure: (§1) 3.5. Acetylcholinesterase Activity Assay Protocol
(§2) The inhibition of AChE and BChE was determined using a method described earlier.
(§3) Briefly, the stock solutions (1mg/mL) of test analogues were prepared using DMSO. The working solutions (1–100μg/mL) were prepared using serial dilutions (a serial dilution means a series of diluted solutions, e.g., 0.1mg/mL, 0.2mg/mL and so on; the solutions contained 5% DMSO and 95% water). The various concentrations of test compounds (10μL) were pre-incubated with sodium phosphate buffer (0.1 M; pH 8.0; 150μL) and AChE (0.1 U/mL; 20μL) for 15 min at 25°C. The reaction was initiated via the addition of DTNB (1 mM; 10μL) and […] (1 mM; 10 μL). The mixture of reaction was mixed using a cyclomixer and incubated for […]
(§4) wavelength against the blank reading containing 10μL DMSO instead of the test compound (the solution contained 5% DMSO and 95% water). Utilizing the formula given in Equation (1), the percentage of inhibition was computed, and the IC50 was determined under the positive control […]
(§5) % Inhibition = (Absorbance of control—Absorbance of compound)/Absorbance of control × 100 […]
(§6) which was calculated by constructing a non-linear regression graph between the percentages of inhibition vs. concentration, using Graph Pad prism software (version 5.3)(accessed on 5 August […]

The target of a further assay is AChE (Homo sapiens, UniProt P22303). The assay can be described thus: biochemical. On the procedure:
as §1, §2, §3, §4, §5, §6

The mark [1] stands for this setting: in vitro enzyme inhibition, read-out: BuChE IC50 (µM ± SEM).
[2] abbreviates: in vitro enzyme inhibition, 25°C, pH 8.0, read-out: AChE IC50 (µM ± SEM).

Sequence of BuChE (P06276 29-602): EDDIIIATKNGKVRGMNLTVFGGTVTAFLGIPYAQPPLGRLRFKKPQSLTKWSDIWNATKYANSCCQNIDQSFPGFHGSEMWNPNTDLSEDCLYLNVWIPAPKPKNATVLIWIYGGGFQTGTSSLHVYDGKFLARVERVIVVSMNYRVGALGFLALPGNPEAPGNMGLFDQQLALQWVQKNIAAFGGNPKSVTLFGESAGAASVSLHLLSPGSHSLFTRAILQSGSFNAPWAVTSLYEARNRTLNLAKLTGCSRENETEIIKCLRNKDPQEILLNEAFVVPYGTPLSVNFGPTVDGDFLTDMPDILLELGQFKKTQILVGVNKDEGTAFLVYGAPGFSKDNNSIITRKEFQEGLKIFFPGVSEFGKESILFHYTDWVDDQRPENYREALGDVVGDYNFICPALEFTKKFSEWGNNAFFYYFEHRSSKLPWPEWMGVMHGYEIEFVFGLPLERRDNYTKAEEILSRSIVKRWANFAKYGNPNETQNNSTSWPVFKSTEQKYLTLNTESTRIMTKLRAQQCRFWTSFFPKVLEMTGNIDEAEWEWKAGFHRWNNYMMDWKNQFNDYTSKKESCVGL
Sequence of AChE (P22303 32-614): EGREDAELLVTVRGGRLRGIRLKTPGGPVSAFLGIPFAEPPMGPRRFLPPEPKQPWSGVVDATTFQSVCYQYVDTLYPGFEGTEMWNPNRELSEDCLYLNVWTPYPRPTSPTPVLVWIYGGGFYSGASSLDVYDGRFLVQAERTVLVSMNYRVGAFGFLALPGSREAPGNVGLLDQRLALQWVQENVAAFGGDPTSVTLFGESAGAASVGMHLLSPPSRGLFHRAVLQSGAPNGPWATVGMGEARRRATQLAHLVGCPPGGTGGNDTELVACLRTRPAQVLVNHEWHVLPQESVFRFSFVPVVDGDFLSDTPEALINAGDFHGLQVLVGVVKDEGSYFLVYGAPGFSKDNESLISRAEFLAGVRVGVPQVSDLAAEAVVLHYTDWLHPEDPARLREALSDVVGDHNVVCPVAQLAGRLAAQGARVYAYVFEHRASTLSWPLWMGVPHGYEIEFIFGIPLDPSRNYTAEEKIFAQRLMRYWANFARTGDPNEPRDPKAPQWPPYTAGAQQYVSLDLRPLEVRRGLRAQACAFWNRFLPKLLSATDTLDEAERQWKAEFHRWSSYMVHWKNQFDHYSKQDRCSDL

Consider `O=[N+]([O-])c1cccc([N+](=O)[O-])c1Nc1nnc(Cc2cc3cc(Cl)ccc3[nH]2)s1` [Compound 4], for which the concentration for half-maximal inhibition (IC50) is 5.4 ± 0.1 µM at BuChE and 2.8 ± 0.1 µM on AChE.
In the case of `Cc1ccc(Nc2nnc(Cc3cc4cc(Cl)ccc4[nH]3)s2)cc1C` [Compound 5], the figures for the IC50 on BuChE (setting [1]) and on AChE (setting [2]) were 9.3 ± 0.1 µM and 5.8 ± 0.2 µM, respectively.
`Cc1cccc(Nc2nnc(Cc3cc4cc(Cl)ccc4[nH]3)s2)c1C` [Compound 6]: the IC50 came to 10.9 ± 0.1 µM at BuChE (setting [1]) and 8.7 ± 0.2 µM at AChE (setting [2]).
For `Fc1ccc(Nc2nnc(Cc3cc4cc(Cl)ccc4[nH]3)s2)cc1` [Compound 8], the results for the IC50 on BuChE (setting [1]) and on AChE (read-out: IC50 for AchE (abstract)) were 0.2 ± 0.1 µM and 0.15 ± 0.05 µM, respectively.
Turning to `Fc1ccccc1Nc1nnc(Cc2cc3cc(Cl)ccc3[nH]2)s1` [Compound 9], the IC50 at BuChE (setting [1]) came out at 0.5 ± 0.05 µM; on AChE (setting [2]), 0.35 ± 0.05 µM.
The like results for `Fc1cccc(Nc2nnc(Cc3cc4cc(Cl)ccc4[nH]3)s2)c1` [Compound 10] were, in that order, 2.8 ± 0.1 µM and 1.1 ± 0.1 µM.
The like results for `O=[N+]([O-])c1cc(Br)cc(Nc2nnc(Cc3cc4cc(Cl)ccc4[nH]3)s2)c1` [Compound 11] were, in that order, 18.4 ± 0.3 µM and 12.3 ± 0.2 µM.
As for `COc1c(Nc2nnc(Cc3cc4cc(Cl)ccc4[nH]3)s2)cccc1[N+](=O)[O-]` [Compound 12], the IC50 on BuChE (setting [1]) worked out at 19.2 ± 0.3 µM; on AChE (setting [2]) it was 14.7 ± 0.3 µM.
The like results for `COc1cc(Nc2nnc(Cc3cc4cc(Cl)ccc4[nH]3)s2)ccc1[N+](=O)[O-]` [Compound 13] were, in that order, 25.3 ± 0.4 µM and 19.1 ± 0.3 µM.
`FC(F)(F)c1ccc(Nc2nnc(Cc3cc4cc(Cl)ccc4[nH]3)s2)cc1Cl` [Compound 14]: the IC50 was 2.6 ± 0.1 µM on BuChE (setting [1]) and 0.4 ± 0.05 µM on AChE (setting [2]).
For `O=[N+]([O-])c1cc(Nc2nnc(Cc3cc4cc(Cl)ccc4[nH]3)s2)ccc1Br` [Compound 15], the concentration for half-maximal inhibition (IC50) on BuChE (setting [1]) was determined as 32.1 ± 0.1 µM; on AChE (setting [2]), 22.2 ± 0.4 µM.
For `O=[N+]([O-])c1ccc(Br)c(Nc2nnc(Cc3cc4cc(Cl)ccc4[nH]3)s2)c1` [Compound 16], the half-inhibitory concentration (IC50) at BuChE (setting [1]) is 34.3 ± 0.6 µM.

In general, IC50 refers to the concentration at which inhibition is half-maximal.

Values taken from publication PMC9657098, “Synthesis, In Vitro Biological Evaluation and In Silico Molecular Docking Studies of Indole Based Thiadiazole Derivatives as Dual Inhibitor of Acetylcholinesterase and Butyrylchloinesterase” (Molecules, 2022).
